For test [1], the system named is bone marrow stem cells. Nature of the test: Chemotaxis of stem cells, agarose chemotaxis assay. It is filed as cell-based. As to conditions: 72 hours; control group (antibiotic) = 100.00; composition 50% of medium volume, positive controls 100 ng/mL. As for the experimental part:
First, after preparing 0.8% agarose gel on a 6-well plate, three holes were perforated in each well with intervals of 5 mm using a 5-mm skin biopsy punch. 1×10^4 bone marrow stem cells were dispensed into LG DMEM containing 10% FBS and an antibiotic at the center. After waiting for 5 hours until the cells were attached, the medium was replaced with LG DMEM containing the antibiotic only. […] In addition, G-CSF 100 ng/mL, SDF-1α 100 ng/mL and IL-1β 100 ng/mL were treated for comparison as positive control groups of chemotaxis. 72 hours later, the cells were fixed with 4% paraformaldehyde, stained with DAPI and observed with a fluorescence microscope. The cells that migrated to the left and right sides were imaged with the fluorescence microscope. The number of cells that migrated 100 μm or longer from the end of each hole was counted. All experiments were repeated 3 times.

Test [2] has as its system bone marrow stem cells. Nature of the test: Chemotaxis of stem cells, Boyden chamber assay. Conditions: 24 hours; control group (antibiotic) = 100.00; composition 10% of medium volume, positive controls 100 ng/mL. It is filed as cell-based. As to the method:
1×10^4 bone marrow stem cells were seeded onto an upper insert of a transwell and cultured for 24 hours in LG DMEM containing an antibiotic (HyClone, Thermo Fisher Scientific Inc., Waltham, MA, USA). […] LG DMEM not containing FBS was used as a negative control group, and G-CSF 100 ng/mL, SDF-1α 100 ng/mL and IL-1β 100 ng/mL were compared as positive control groups of chemotaxis. In order to count the cells that migrated from the insert to the bottom, the cells remaining on the insert was removed 24 hours later and only the cells at the bottom were left. After fixing with 4% paraformaldehyde and staining with crystal violet, the cells were observed under a microscope. For quantification of the cells that migrated to the bottom, OD540 was measured after dissolving the crystal violet with acetic acid. All experiments were repeated 3 times.

For the molecule “IL-1β: positive control of chemotaxis, 100 ng/mL”, the results for the “Number of migrated cells” value in test [1] and in test [2] were 314.13 ± 220.72 and 358.85 ± 271.58, respectively.
In the case of “SDF-1α: positive control of chemotaxis, 100 ng/mL”, the entries for the “Number of migrated cells” value in test [1] and in test [2] were 466.68 ± 348.04 and 365.28 ± 280.55, respectively.

B1: G-CSF: positive control of chemotaxis, 100 ng/mL (protein, UniProt P09919 31-207, looked up)
Granulocyte …: TPLGPASSLPQSFLLKCLEQVRKIQGDGAALQEKLVSECATYKLCHPEELVLLGHSLGIPWAPLSSCPSQALQLAGCLSQLHSGLFLYQGLLQALEGISPELGPTLDTLQLDVADFATTIWQQMEELGMAPALQPTQGAMPAFASAFQRRAGGVLVASHLQSFLEVSYRVLRHLAQP
For B1, the “Number of migrated cells” value in test [1] amounted to 393.76 ± 280.52; in test [2] it was 415.01 ± 338.54.
